This assay addresses Prolyl endopeptidase (Sus scrofa, UniProt P23687). The assay can be described thus: Inhibition of pig brain POP.

Structures are written as SMILES.

Sequence of Prolyl endopeptidase (P23687 whole entry): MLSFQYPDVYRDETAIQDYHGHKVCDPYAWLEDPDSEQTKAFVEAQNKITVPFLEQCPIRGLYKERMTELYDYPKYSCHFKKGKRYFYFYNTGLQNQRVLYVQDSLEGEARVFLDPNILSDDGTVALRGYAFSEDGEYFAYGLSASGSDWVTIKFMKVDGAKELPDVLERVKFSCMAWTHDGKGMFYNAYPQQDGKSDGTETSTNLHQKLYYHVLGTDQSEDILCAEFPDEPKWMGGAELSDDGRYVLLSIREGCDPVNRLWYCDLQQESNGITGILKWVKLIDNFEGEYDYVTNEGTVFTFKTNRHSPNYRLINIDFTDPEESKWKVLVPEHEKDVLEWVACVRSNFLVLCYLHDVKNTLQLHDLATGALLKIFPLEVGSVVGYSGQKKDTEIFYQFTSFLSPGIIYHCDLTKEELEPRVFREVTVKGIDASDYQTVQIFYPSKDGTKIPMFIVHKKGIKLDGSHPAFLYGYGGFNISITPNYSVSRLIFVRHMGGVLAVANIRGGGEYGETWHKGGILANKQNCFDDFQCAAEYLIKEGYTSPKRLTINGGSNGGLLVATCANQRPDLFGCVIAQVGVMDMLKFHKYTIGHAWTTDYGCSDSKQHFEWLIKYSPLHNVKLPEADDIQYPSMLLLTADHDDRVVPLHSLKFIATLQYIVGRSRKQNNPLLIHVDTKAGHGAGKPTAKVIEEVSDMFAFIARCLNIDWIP

Broadly, the IC50 is the point on the concentration scale where inhibition reaches its midpoint. Take `O=C1OC2(c3ccc(O)cc3Oc3cc(O)ccc32)c2ccc(NC(=S)NCC(=O)N3CCC[C@H]3C(=O)N3CCC[C@H]3C(=O)CO)cc21`: inhibition was half-maximal at 180 nM (IC50).

The compound `O=C1OC2(c3ccc(O)cc3Oc3cc(O)ccc32)c2ccc(NC(=S)NCCCCCC(=O)N3CCC[C@H]3C(=O)N3CCC[C@H]3C(=O)CO)cc21` displayed an IC50 of 0.83 nM.

Source of the values: ChEMBL document CHEMBL1139461, “Synthesis and characterization of the novel fluorescent prolyl oligopeptidase inhibitor 4-fluoresceinthiocarbamoyl-6-aminocaproyl-L-prolyl-2(S)-(hydroxyacetyl)pyrrolidine” (J Med Chem, 2005).
